This passage reports EC50, inhibition and ED50 results from ChEMBL document CHEMBL1135356, “Multidrug resistant cancer cells susceptibility to cytotoxic taxane diterpenes from Taxus yunnanensis and Taxus chinensis” (2002).

The nature of assay [1]: Cytotoxic activity of compound was evaluated against KB cell line. The format is functional. As to conditions: Homo sapiens, read-out: ED50 (the source's name).
The nature of assay [2]: Cytotoxic activity of compound was evaluated against KB cell line at conc. of 20 ug/mL. The format is functional. Conditions: Homo sapiens.
Assay [3] in a line: Cytotoxic activity of compound was evaluated against drug resistant subline KB-7d cells. Conditions: Homo sapiens; read-out: ED50 (the source's name). It is filed as functional.
The test system of assay [4] is KB 3-1. Briefly: Cytotoxic activity of compound was evaluated against drug resistant subline KB-7d cells at conc. of 20 ug/mL. It is filed as functional. As to conditions: Homo sapiens.
Assay [5] concerns KB 3-1. Briefly: Cytotoxic activity of compound was evaluated against KB-VIN cells expressing (P-glycoprotein). The format is functional. Conditions: Homo sapiens, KBVIN; read-out: ED50 (the source's name).
The subject of assay [6] is KB 3-1. Briefly: Cytotoxic activity of compound was evaluated against KB-VIN cells at conc. of 20 ug/mL. The format is functional. Conditions: Homo sapiens, KBVIN.
The subject of assay [7] is A549. Briefly: Cytotoxic activity of compound against A-549 tumor cell line. The format is functional. As to conditions: Homo sapiens, read-out: ED50 (the source's name).
In assay [8] the test system is A549. Briefly: Cytotoxic activity of compound against A-549 tumor cell line at conc. of 20 ug/mL. It is filed as functional. As to conditions: Homo sapiens.
Assay [9] relates to HCT-8. Briefly: Cytotoxic activity of compound against HCT-8 tumor cell line; NA denotes not active at conc. of 20 ug/mL. It is filed as functional, cell-based. Conditions: Homo sapiens.
Assay [10] concerns HOS. Briefly: Cytotoxic activity of compound against HOS tumor cell line. The format is functional. Conditions: Homo sapiens, read-out: ED50 (the source's name).
In assay [11] the test system is HOS. Briefly: Cytotoxic activity of compound against HOS tumor cell line at conc. of 20 ug/mL. As to conditions: Homo sapiens. The format is functional.
Assay [12] in a line: Cytotoxic activity of compound against IA-9 tumor cell line. The format is functional. As to conditions: Homo sapiens; read-out: ED50 (the source's name).
Assay [13] is described as follows: Cytotoxic activity of compound against IA-9 tumor cell line. at conc. of 20 ug/mL. It is filed as functional. Conditions: Homo sapiens.
The nature of assay [14]: Cytotoxic activity of compound against KB cell lines at conc. of 20 ug/mL. The format is functional. As to conditions: Homo sapiens.
In assay [15] the test system is KB 3-1. In words: Cytotoxic activity of compound was evaluated against KB-VIN cells expressing (P-glycoprotein) at conc. of 20 ug/mL. As to conditions: Homo sapiens, KBVIN. The format is functional.
Assay [16] has as its system MCF7. In words: Cytotoxic activity of compound against MCF-7 tumor cell line. The format is functional. Conditions: Homo sapiens, read-out: ED50 (the source's name).
Assay [17] has as its system MCF7. In words: Cytotoxic activity of compound against MCF-7 tumor cell line at conc. of 20 ug/mL. The format is functional. As to conditions: Homo sapiens.
The test system of assay [18] is SK-MEL-2. Briefly: Cytotoxic activity of compound against SK-MEL-2 tumor cell line. It is filed as functional. As to conditions: Homo sapiens, read-out: ED50 (the source's name).
Assay [19] deals with SK-MEL-2. In words: Cytotoxic activity of compound against SK-MEL-2 tumor cell line at conc. of 20 ug/mL. Conditions: Homo sapiens. The format is functional.
Assay [20] concerns U-87 MG. Briefly: Cytotoxic activity of compound against U-87-MG tumor cell line at conc. of 20 ug/mL. The format is functional, U-87MG ATCC. Conditions: Homo sapiens.
Assay [21] concerns U-87 MG. In words: Cytotoxic activity of compound against U-87-MG tumor cell line. It is filed as functional, U-87MG ATCC. Conditions: Homo sapiens, read-out: ED50 (the source's name).
Assay [22] is described as follows: Cytotoxic activity of compound against KB cell lines. The format is functional. As to conditions: Homo sapiens, read-out: ED50 (the source's name).
In the next assay the test system is KB. Briefly: Cytotoxic activity of compound was evaluated against KB cell line; NA denotes not active at conc. of 20 ug/mL. It is filed as functional, cell-based. As to conditions: Homo sapiens.
Assay [23] concerns HCT-8. In words: Cytotoxic activity of compound against HCT-8 tumor cell line. Conditions: Homo sapiens, read-out: ED50 (the source's name). The format is functional.

Converted amounts (≈) assume the structure as drawn. The source made the active and inactive calls. No cut-off for these calls is given here. Where only a bound is given, the exact number is not on record here.

Regarding `CC(=O)O[C@H]1C[C@H]2[C@@H](OC(C)=O)/C=C3\C[C@@](C)([C@@H](OC(C)=O)C[C@@H]3OC(C)=O)[C@@H](O)C(=O)C(=C1C)C2(C)C`, the EC50 in assay [1] is above 20 µg/mL; in [3], above 28 µg/mL; in the assay on KB 3-1 [5], above 21 µg/mL. Besides, the inhibition at 20 µg/mL in assay [2] is 10%; in the assay on KB 3-1 [4], 28%; in the assay with KB 3-1 [6] it was 21%.

`COc1ccc(-c2cc(=O)c3c(O)cc(O)c(-c4cc(OC)ccc4-c4cc(=O)c5c(O)cc(OC)cc5o4)c3o2)cc1`: the EC50 (in the assay with A549 [7]; in the assay with HOS [10]; in [12]; in the assay with KB 3-1 [5]; in the assay with MCF7 [16]; in the assay on SK-MEL-2 [18]) was above 20 µg/mL throughout. The EC50 (in the assay on U-87 MG [21]; in assay [22]) was above 20 µg/mL throughout. The inhibition at 20 µg/mL in the assay on A549 [8] turned out to be 58%; with HOS [11], 25%; in assay [13], 44%; in assay [14] it was 12%; in the assay with KB 3-1 [15] it was 9%; in the assay on MCF7 [17], 22%. Further, the inhibition at 20 µg/mL in the assay on SK-MEL-2 [19] is 9%; in the assay with U-87 MG [20] it was 17%. Moreover, in the assay with HCT-8 [9], the inhibition result was “inactive”.

With `CC(=O)OC/C1=C\[C@H](OC(C)=O)[C@]2(C)C[C@H](OC(C)=O)C(C)=C([C@@H](OC(C)=O)/C(OC(C)=O)=C(/C)[C@@H](OC(C)=O)C[C@@H]1OC(=O)/C=C/c1ccccc1)C2(C)C`, the EC50 in [1] amounted to 16.6 µg/mL (≈ 21.3 µM); in assay [3], 10 µg/mL (≈ 12.8 µM); in the assay on KB 3-1 [5] it was 13.3 µg/mL (≈ 17 µM).

Regarding `CC(=O)O[C@H]1C(=O)[C@@]2(C)C/C(=C\[C@H](OC(C)=O)[C@@H]3C[C@H](OC(C)=O)C(C)=C1C3(C)C)[C@@H](OC(C)=O)C[C@@H]2OC(C)=O`, in the assay on KB, the ED50 entry is “inactive”. The EC50 (in assay [3]; in the assay on KB 3-1 [5]) was above 20 µg/mL each time. Also, the inhibition at 20 µg/mL turned out to be 22% with KB 3-1 [4] and 5% in the assay with KB 3-1 [15].

With `COc1ccc(-c2cc(=O)c3c(O)cc(OC)cc3o2)c(-c2c(O)cc(O)c3c(=O)cc(-c4ccc(O)cc4)oc23)c1`, the EC50 with A549 [7] was 5.5 µg/mL (≈ 9.71 µM); with HCT-8 [23], 8.5 µg/mL (≈ 15 µM); in the assay with HOS [10], 8 µg/mL (≈ 14.1 µM); in assay [12] it was 6 µg/mL (≈ 10.6 µM); with KB 3-1 [5], above 20 µg/mL; in the assay on MCF7 [16], 7.5 µg/mL (≈ 13.2 µM). Moreover, the EC50 in the assay on SK-MEL-2 [18] was 7 µg/mL (≈ 12.4 µM); in the assay with U-87 MG [21], 7 µg/mL (≈ 12.4 µM); in [22], 7.5 µg/mL (≈ 13.2 µM). In addition, in the assay on KB 3-1 [15], the inhibition at 20 µg/mL was 21%.

`C=C1[C@@H](OC(C)=O)CC[C@@]2(C)C[C@H](OC(C)=O)C3=C(C)C[C@H](OC(=O)[C@@H](C)C(C)O)[C@@H]([C@@H](OC(C)=O)[C@H]12)C3(C)C` (some centres undefined): the values for the EC50 (in assay [1]; in assay [3]; in the assay with KB 3-1 [5]) were 9.8 µg/mL (≈ 17.4 µM), 4.3 µg/mL (≈ 7.64 µM) and 8.6 µg/mL (≈ 15.3 µM), respectively.

Take `C=C1[C@@H](OC(=O)/C=C/c2ccccc2)C[C@H](OC(C)=O)[C@@]2(C)[C@@H](OC(C)=O)[C@H](OC(C)=O)C3=C(C)C(=O)C[C@@H]([C@@H](OC(C)=O)[C@H]12)C3(C)C`: the results for the EC50 (in assay [1]; in assay [3]; in the assay on KB 3-1 [5]) were 3.9 µg/mL (≈ 5.87 µM), 4.1 µg/mL (≈ 6.17 µM) and 3.6 µg/mL (≈ 5.42 µM), respectively.

Consider `C=C1[C@@H](OC(=O)/C=C/c2ccccc2)CC[C@@]2(C)[C@@H](OC(C)=O)[C@H](OC(C)=O)[C@@]34[C@H](C)C(=O)C[C@@H]([C@@H](OC(C)=O)C132)C4(C)C` (some centres undefined), for which the EC50 in [1] is 12.1 µg/mL (≈ 19.9 µM); in assay [3] it was 7.8 µg/mL (≈ 12.9 µM); in the assay with KB 3-1 [5], 8.7 µg/mL (≈ 14.3 µM).

Consider `C=C1[C@@H](OC(=O)/C=C/c2ccccc2)C[C@H](OC(C)=O)[C@@]2(C)[C@@H](OC(C)=O)[C@H](OC(C)=O)C3=C(C)[C@@H](OC(C)=O)C[C@@H]([C@@H](OC(C)=O)[C@H]12)C3(C)C`, for which the EC50 in assay [1] turned out to be 16 µg/mL (≈ 22.6 µM); in assay [3], 14.2 µg/mL (≈ 20 µM); in the assay on KB 3-1 [5], 16.2 µg/mL (≈ 22.9 µM).

On to `C=C1[C@@H](OC(=O)/C=C/c2ccccc2)C[C@H](OC(C)=O)[C@]2(C)[C@@H]1C[C@@H]1C[C@H](OC(C)=O)C(C)=C([C@@H](OC(C)=O)[C@@H]2OC(C)=O)C1(C)C`, for which the values for the EC50 (in assay [1]; in assay [3]; in the assay with KB 3-1 [5]) were 4.8 µg/mL (≈ 7.38 µM), 3.5 µg/mL (≈ 5.38 µM) and 2.4 µg/mL (≈ 3.69 µM), respectively.

Turning to `C=C1[C@@H](OC(=O)/C=C/c2ccccc2)CC[C@@]2(C)[C@@H](O)[C@H](OC(C)=O)[C@@]34[C@H](C)C(=O)C[C@@H]([C@@H](OC(C)=O)C132)C4(C)C` (some centres undefined), the EC50 in assay [1] was 7.7 µg/mL (≈ 13.6 µM); in assay [3], 6.1 µg/mL (≈ 10.8 µM); with KB 3-1 [5], 6.4 µg/mL (≈ 11.3 µM).

Turning to `C=C1[C@@H](OC(=O)/C=C/c2ccccc2)CC[C@@]2(C)[C@@H](OC(C)=O)[C@H](OC(C)=O)C3=C(C)[C@@H](OC(C)=O)C[C@@H]([C@@H](O)[C@H]12)C3(C)C`, the EC50 in assay [1] is 12.5 µg/mL (≈ 20.5 µM); in [3], 9.4 µg/mL (≈ 15.4 µM); with KB 3-1 [5], 11 µg/mL (≈ 18.1 µM).

Take `CC(=O)O[C@H]1CC[C@@]2(C)C[C@H](OC(C)=O)C3=C(C)CC(O)[C@@H]([C@@H](OC(C)=O)[C@@H]2C1)C3(C)C` (some centres undefined): the EC50 is above 20 µg/mL in assay [1], 9.6 µg/mL (≈ 21.3 µM) in assay [3] and 17.3 µg/mL (≈ 38.4 µM) with KB 3-1 [5]. In [2], this compound had an inhibition at 20 µg/mL of 45%.

Consider `C=C1[C@@H](OC(=O)/C=C/c2ccccc2)C[C@H](OC(C)=O)[C@@]2(CCOC(C)=O)[C@@H](OC(C)=O)[C@H](OC(C)=O)[C@]3(O)[C@@]4(C)CO[C@]3(C)C(=O)C[C@H]4[C@@H](OC(C)=O)[C@H]12`, for which the figures for the EC50 (in assay [1]; in [3]; with KB 3-1 [5]) were 6.2 µg/mL (≈ 8.06 µM), 4.6 µg/mL (≈ 5.98 µM) and 17 µg/mL (≈ 22.1 µM), respectively.
